The record followed here is PMC11744668, “2-Cyanopyrimidine-Containing Molecules for N-Terminal Selective Cyclization of Phage-Displayed Peptides” (ACS Chemical Biology, 2025).

Test [1] relates to CA5C phages (N-terminal cysteines displayed on pIII). Put plainly: Biotin pulldown (capture) assay of CA5C phages. The note with it: 100 μM linker, RT; Biotin-CBT, streptavidin beads; vs control phage AAKAA; n = 3. The text has this:
Following the characterization of the linkers for efficient cyclization of peptides, we then looked to characterize pCAmCP and mCAmCP for reactivity toward phage proteins. Some previously developed linkers that generate macrocyclic peptide libraries on phage hinder phage infectivity, which is likely from modifying cysteines within phage coat proteins.[26]−[28] To test if this occurred in the novel linkers, we performed toxicity assays that reacted the phages with different concentrations of linker (50–200 μM), temperatures (22 or 37 °C), and reaction times (3 or 24 h). […] We expressed phages with a CA5C peptide on the N-terminus of pIII. […] Following the precipitation of the phages, they were again reduced with TCEP and were incubated with a Biotin-CBT compound to label any unreacted N-terminal cysteines with biotin, allowing for phage capture on streptavidin beads (Figure 4B). […] Comparison with capture levels of unreacted phages indicated at least 80% and 70% reactivity of pCAmCP and mCAmCP with the CA5C phages, respectively. […]
The purified CA5C phages (10^11 to 10^12 cfu, 98 μL) in binding buffer were incubated with 1 mM TCEP at 37 °C for 30 min. […] Percent phages captured was calculated by (phages input – phages in supernatant)/phages input × 100.

The subject of a further test is CA5C-sfGFP. Description: Cyclization of CA5C-sfGFP with linkers (LC-ESI-MS). Particulars: 100 μM linker, PBS pH 7.4, 1 mM TCEP; for cyclization of CA5C-sfGFP: 3 h, 22 °C (RT), 500 nM protein; for cyclization of CA5C-sfGFP, optimized (in words): 16 h. On the procedure: The designed organic linkers were tested for their ability to cyclize a CA5C peptide expressed as an N-terminal fusion to sfGFP (CA5C-sfGFP). Following reduction of the protein with 1 mM TCEP for 30 min, 100 μM compounds were reacted with the reduced CA5C-sfGFP for 3 h in PBS (pH 7.4). Following the reaction, the protein was analyzed via electrospray ionization mass spectrometry (ESI-MS) analysis to determine the desired adduct and any potential side reactions that occurred. […] This is likely due to the electron withdrawing effects of the nitrogen atoms adjacent to the nitrile in the 2-cyanopyrimidine derivatives. […] Following previously established Bayesian deconvolution of the mass spectra,[23] protein masses from each reaction (MW = 28,399 Da) corresponded well with that of the expected cyclic product (MW = 28,399 Da). […] This observed mass matches a TCEP-conjugated product resulting from a previously reported competing phospha-Michael addition of TCEP to the acrylamide moiety.[24] This product has a TCEP-functionalized linker that is nonreactive toward the internal cysteine (Figure 2A,B). Following these initial studies, we then further optimized the cyclization of CA5C-sfGFP using pCAmCP and mCAmCP by varying the reaction time, temperature, and concentration of linkers (Figure 2C).
Purified CA5C-sfGFP was diluted to 500 nM in PBS (pH 7.4) containing 1 mM TCEP and left to incubate for 30 min at 37 °C. Linker (100 μM final concentration) or equivalent amounts of DMSO were then added to the solution, and it reacted at varying times (3 or 16 h) and temperatures (22 or 37 °C). All initial tests for reactivity were performed at 22 °C for 3 h, while linkers pCAmCP and mCAmCP were optimized with the additional conditions. The reaction mixtures were then concentrated and exchanged to ammonium bicarbonate (50 mM, pH 8.0) using an Amicon centrifugal filter (MWCO: 10 kDa). Samples were analyzed using a QExactive Orbitrap LC–MS System (Thermo Fisher) and deconvoluted using UniDec software.[23]

For the compound `N#Cc1ncc(NC(=O)CCl)cn1` [pCAmCP, 2-chloro-N-(2-cyanopyrimidin-5-yl)acetamide], in test [1], the “percent of phages captured after linker reaction (in words)” value is “reduced to levels similar to those of a control phage that lacked N-terminal cysteines”. In addition, in the test with CA5C-sfGFP, the “cyclization of CA5C-sfGFP” value was found to be 50% and the “cyclization of CA5C-sfGFP, optimized (in words)” value is given as “nearly complete cyclization of CA5C-sfGFP with no significant side reactions observed”.

For `N#Cc1nccc(NC(=O)CCl)n1` [mCAmCP, 2-chloro-N-(2-cyanopyrimidin-4-yl)acetamide], the “percent of phages captured after linker reaction (in words)” value in test [1] is “reduced to levels similar to those of a control phage that lacked N-terminal cysteines”. In the test with CA5C-sfGFP, the “cyclization of CA5C-sfGFP” value is recorded as around 70% and the “cyclization of CA5C-sfGFP, optimized (in words)” value is “nearly complete cyclization of CA5C-sfGFP with no significant side reactions observed”.
